In brackets after ≈: the same amount, converted by molar mass.

For this assay, the system named is Enterococcus faecalis ATCC 29212. The assay is described as follows: MIC against Enterococcus faecalis ATCC 29212. Type of assay: cell-based. Particulars: ATCC29212; Enterococcus faecalis ATCC 29212; read-out: MICs against Enterococcus faecalis, Activity. The gist of the method: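 MIC measured by broth microdilution or agar dilution following CLSI guidelines (M7-A7 for aerobes, M11-A6 for anaerobes).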
On to `CCNC(=O)Nc1nc2cc(-c3cccnc3)cc(-c3cccc(CO)n3)c2s1` [Example 104, 1-Ethyl-3-[7-(6-hydroxymethyl-pyridin-2-yl)-5-pyridin-3-yl-benzothiazol-2-yl]-urea], for which the MIC was less than 0.25 µg/mL. Next, `CCNC(=O)Nc1nc2cc(-c3cccnc3)cc(-c3ccc(OC)nn3)c2s1` [Example 105, 1-Ethyl-3-[7-(6-methoxy-pyridazin-3-yl)-5-pyridin-3-yl-benzothiazol-2-yl]-urea]: 0.25 to 1 µg/mL (≈ 0.615 to 2.46 µM). Then `CCNC(=O)Nc1nc2cc(-c3cccnc3)cc(-c3nc(CO)cs3)c2s1` [Example 106, 1-Ethyl-3-[7-(4-hydroxymethyl-thiazol-2-yl)-5-pyridin-3-yl-benzothiazol-2-yl]-urea], with 0.25 to 1 µg/mL (≈ 0.608 to 2.43 µM); and `CCNC(=O)Nc1nc2cc(-c3cccnc3)cc(-c3ccc(C#N)cn3)c2s1` [Example 107, 1-[7-(5-Cyano-pyridin-2-yl)-5-pyridin-3-yl-benzothiazol-2-yl]-3-ethyl-urea], with less than 0.25 µg/mL; and `CCNC(=O)Nc1nc2cc(-c3cccnc3)cc(-c3cc(C(N)=O)ccn3)c2s1` [Example 108, 2-[2-(3-Ethyl-ureido)-5-pyridin-3-yl-benzothiazol-7-yl]-isonicotinamide], with 0.25 to 1 µg/mL (≈ 0.597 to 2.39 µM). Then `CCNC(=O)Nc1nc2cc(-c3cccnc3)cc(-c3ncccc3CO)c2s1` [Example 109, 1-Ethyl-3-[7-(3-hydroxymethyl-pyridin-2-yl)-5-pyridin-3-yl-benzothiazol-2-yl]-urea], with 2 to 16 µg/mL (≈ 4.93 to 39.5 µM); and `CCNC(=O)Nc1nc2cc(-c3cccnc3)cc(-c3nccc(N)n3)c2s1` [Example 110, 1-[7-(4-Amino-pyrimidin-2-yl)-5-pyridin-3-yl-benzothiazol-2-yl]-3-ethyl-urea], with less than 0.25 µg/mL; and `CCNC(=O)Nc1nc2cc(-c3cccnc3)cc(-c3ccc4cc[nH]c4n3)c2s1` [Example 111, 1-Ethyl-3-[5-pyridin-3-yl-7-(1H-pyrrolo[2,3-b]pyridin-6-yl)-benzothiazol-2-yl]-urea], with less than 0.25 µg/mL. `CCNC(=O)Nc1nc2cc(-c3cccnc3)cc(-c3cc(OC)ccn3)c2s1` [Example 112, 1-Ethyl-3-[7-(4-methoxy-pyridin-2-yl)-5-pyridin-3-yl-benzothiazol-2-yl]-urea]: the MIC is less than 0.25 µg/mL.

With `CCNC(=O)Nc1nc2cc(-c3cccnc3)cc(-c3cccc(C#N)n3)c2s1` [Example 113, 1-[7-(6-Cyano-pyridin-2-yl)-5-pyridin-3-yl-benzothiazol-2-yl]-3-ethyl-urea], the MIC was less than 0.25 µg/mL. Next, `CCNC(=O)Nc1nc2cc(-c3cccnc3)cc(-c3ccnc(N)n3)c2s1` [Example 114, 1-[7-(2-Amino-pyrimidin-4-yl)-5-pyridin-3-yl-benzothiazol-2-yl]-3-ethyl-urea]: less than 0.25 µg/mL; `CCNC(=O)Nc1nc2cc(-c3cccnc3)cc(-c3nccc4cc[nH]c34)c2s1` [Example 115, 1-Ethyl-3-[5-pyridin-3-yl-7-(1H-pyrrolo[2,3-c]pyridin-7-yl)-benzothiazol-2-yl]-urea]: less than 0.25 µg/mL; `CCNC(=O)Nc1nc2cc(-c3cccnc3)cc(-c3ncnc4[nH]ccc34)c2s1` [Example 116, 1-Ethyl-3-[5-pyridin-3-yl-7-(7H-pyrrolo[2,3-d]pyrimidin-4-yl)-benzothiazol-2-yl]-urea]: less than 0.25 µg/mL.

Regarding `CCNC(=O)Nc1nc2cc(-c3cccnc3)cc(-c3nc4ccccc4s3)c2s1` [Example 117, 1-Ethyl-3-(5′-pyridin-3-yl-[2,7′]bibenzothiazolyl-2′-yl)-urea], the MIC was less than 0.25 µg/mL.

For `CCNC(=O)Nc1nc2cc(-c3cccnc3)cc(-c3ncccc3OC)c2s1` [Example 118, 1-Ethyl-3-[7-(3-methoxy-pyridin-2-yl)-5-pyridin-3-yl-benzothiazol-2-yl]-urea], the MIC is less than 0.25 µg/mL.

With `CCNC(=O)Nc1nc2cc(-c3cccnc3)cc(-c3cc(C#N)ccn3)c2s1` [Example 119, 1-[7-(4-Cyano-pyridin-2-yl)-5-pyridin-3-yl-benzothiazol-2-yl]-3-ethyl-urea], the MIC is less than 0.25 µg/mL. Turning to `CCNC(=O)Nc1nc2cc(-c3cccnc3)cc(-c3ccc(CN4CCOCC4)cn3)c2s1` [Example 120, 1-Ethyl-3-[7-(5-morpholin-4-ylmethyl-pyridin-2-yl)-5-pyridin-3-yl-benzothiazol-2-yl]-urea], the MIC lay in the range of 0.25 to 1 µg/mL (≈ 0.527 to 2.11 µM). `CCNC(=O)Nc1nc2cc(-c3cccnc3)cc(-c3cc(CO)ccn3)c2s1` [Example 121, 1-Ethyl-3-[7-(4-hydroxymethyl-pyridin-2-yl)-5-pyridin-3-yl-benzothiazol-2-yl]-urea]: the MIC was less than 0.25 µg/mL. Then `CCNC(=O)Nc1nc2cc(-c3cccnc3)cc(-c3cc(OC)ncn3)c2s1` [Example 122, 1-Ethyl-3-[7-(6-methoxy-pyrimidin-4-yl)-5-pyridin-3-yl-benzothiazol-2-yl]-urea], with less than 0.25 µg/mL. Next, `CCNC(=O)Nc1nc2cc(-c3cccnc3)cc(-c3cncc(N)n3)c2s1` [Example 123, 1-[7-(6-Amino-pyrazin-2-yl)-5-pyridin-3-yl-benzothiazol-2-yl]-3-ethyl-urea]: less than 0.25 µg/mL; `CCNC(=O)Nc1nc2cc(-c3cccnc3)cc(-c3nccc(OC)n3)c2s1` [Example 124, 1-Ethyl-3-[7-(4-methoxy-pyrimidin-2-yl)-5-pyridin-3-yl-benzothiazol-2-yl]-urea]: less than 0.25 µg/mL. Then `CCNC(=O)Nc1nc2cc(-c3cccnc3)cc(-c3cccc(N)n3)c2s1` [Example 125, 1-[7-(6-Amino-pyridin-2-yl)-5-pyridin-3-yl-benzothiazol-2-yl]-3-ethyl-urea], with less than 0.25 µg/mL. As for `CCNC(=O)Nc1nc2cc(-c3cccnc3)cc(-c3ncccc3Cl)c2s1` [Example 126, 1-[7-(3-Chloro-pyridin-2-yl)-5-pyridin-3-yl-benzothiazol-2-yl]-3-ethyl-urea], the MIC is less than 0.25 µg/mL.

On to `CCNC(=O)Nc1nc2cc(-c3cccnc3)cc(-c3cc(Cl)ccn3)c2s1` [Example 127, 1-[7-(4-Chloro-pyridin-2-yl)-5-pyridin-3-yl-benzothiazol-2-yl]-3-ethyl-urea], for which the MIC was less than 0.25 µg/mL. Then `CCNC(=O)Nc1nc2cc(-c3cccnc3)cc(-c3ncccc3C(F)(F)F)c2s1` [Example 128, 1-Ethyl-3-[5-pyridin-3-yl-7-(3-trifluoromethyl-pyridin-2-yl)-benzothiazol-2-yl]-urea], with 0.25 to 1 µg/mL (≈ 0.564 to 2.26 µM); and `CCNC(=O)Nc1nc2cc(-c3cccnc3)cc(-c3ccc(C(F)(F)F)cn3)c2s1` [Example 129, 1-Ethyl-3-[5-pyridin-3-yl-7-(5-trifluoromethyl-pyridin-2-yl)-benzothiazol-2-yl]-urea], with 0.25 to 1 µg/mL (≈ 0.564 to 2.26 µM); and `CCNC(=O)Nc1nc2cc(-c3cccnc3)cc(-c3ccc(Cl)cn3)c2s1` [Example 130, 1-[7-(5-Chloro-pyridin-2-yl)-5-pyridin-3-yl-benzothiazol-2-yl]-3-ethyl-urea], with less than 0.25 µg/mL. Next, `CCNC(=O)Nc1nc2cc(-c3cccnc3)cc(-c3cnc(N)cn3)c2s1` [Example 131, 1-[7-(5-Amino-pyrazin-2-yl)-5-pyridin-3-yl-benzothiazol-2-yl]-3-ethyl-urea]: less than 0.25 µg/mL; `CCNC(=O)Nc1nc2cc(-c3cccnc3)cc(-c3ccc(CN(C)C)cn3)c2s1` [Example 132, 1-[7-(5-Dimethylaminomethyl-pyridin-2-yl)-5-pyridin-3-yl-benzothiazol-2-yl]-3-ethyl-urea]: 2 to 16 µg/mL (≈ 4.62 to 37 µM).

The values above are taken from patent US8481544B2, “Antibacterial compositions” (Biota Europe Limited, priority 2006, dated 2013).
